Laboratory results from publication PMC10223877, “Impacts of PEGylation and Glycosylation on the Biological Properties of Host Defense Peptide IDR1018” (Pharmaceutics, 2023).
Values after ≈ are worked out from the molar mass of the structure shown. Ends that are not written are not given here. Peptide text beside a SMILES is read from it. * marks the point of attachment. X1 = CC(=O)N[C@H]1C(*)O[C@H](CO)[C@@H](O)[C@@H]1O; X2 = O=C(CCOCCOCCOCCOCCOCCOCCO)*

Columns and labels:
A. baumannii 5015 [1] = experiment: MIC, liquid broth inhibition assay; assay type: cell-based; conditions: planktonic A. baumannii 5015; MHB, ~1 × 10^6 CFU mL^−1, ~18 h, OD600; modal values of three independent experiments
Protocol: (§1) The MIC was conducted using the liquid broth inhibition assay as previously described. MHB was used as a medium for bacterial growth, and bacteria (either MRSA SAP0017, P. aeruginosa PA14, E. coli ATTC489 or A. baumannii 5015) were suspended at ∼1 × 10^6 CFU mL^−1. The peptide conjugates were incubated with the bacterial cultures at various concentrations for ~18 h prior determination of bacterial growth optical density at 600 nm (OD600). The MIC was defined as the lowest concentration that led to no growth in the wells. All values are modal values of three independent experiments.

E. coli ATTC489 [2] = experiment: MIC, liquid broth inhibition assay; assay type: cell-based; conditions: planktonic E. coli ATTC489; MHB, ~1 × 10^6 CFU mL^−1, ~18 h, OD600; modal values of three independent experiments
Protocol: as §1

P. aeruginosa PA14 [3] = experiment: MIC, liquid broth inhibition assay; assay type: cell-based; conditions: planktonic P. aeruginosa PA14; MHB, ~1 × 10^6 CFU mL^−1, ~18 h, OD600; modal values of three independent experiments
Protocol: as §1

S. aureus MRSA0017 [4] = experiment: MIC, liquid broth inhibition assay; assay type: cell-based; conditions: planktonic S. aureus MRSA0017; MHB, ~1 × 10^6 CFU mL^−1, ~18 h, OD600; modal values of three independent experiments
Protocol: as §1

P. aeruginosa PA14 [5] = experiment: Biofilm eradication assay (MBEC), preformed biofilms; assay type: cell-based; conditions: BM2 glucose, viable biofilm cell count, three independent experiments
Source text: (§2) A bacterial suspension of 1 × 10^7 CFU mL^−1 was used to establish biofilms prior to treatment with the peptides. Appropriate nutrient media for optimal biofilm formation were used, including TSB supplemented with 1% glucose for MRSA SAP0017, BM2 glucose for P. aeruginosa PA14, and LB media supplemented with 1% glucose for E. coli ATTC489 and A. baumannii 5015. In the crystal violet-based assay, untreated bacterial culture and sterile media were used as positive and negative controls, where the % of biofilm biomass was considered 100 and 0%, respectively. The % of biomass in the treated samples was determined relative to the positive and negative controls. A biofilm eradication assay [17] was also performed, for which the residual viable biofilm cell count (CFU mL^−1) was determined. Experiments were conducted in triplicate, in three independent experiments, and average values were presented with ± standard deviations.

E. coli ATTC489 [6] = experiment: as above; assay type: cell-based; conditions: LB + 1% glucose, viable biofilm cell count, three independent experiments
Source text: as §2

A. baumannii 5015 [7] = experiment: as above; assay type: cell-based; conditions: preformed A. baumannii 5015 biofilm, LB + 1% glucose; viable biofilm cell count; three independent experiments
Source text: as §2

[8] = at 128 µg mL^−1; LDH release, 24 h, 37 °C, RPMI + 10% FBS; 1% Triton X-100 = 100%
Protocol: The cytotoxicity of the conjugates was assessed in vitro against PBMCs as described earlier using the lactate dehydrogenase (LDH)-based assay [35]. Blood samples were collected from healthy donors with ethics approval and PBMCs were isolated following our previously reported protocol [35]. The cells were resuspended in RPMI medium supplemented with 10% FBS and seeded in tissue culture-treated plates at a final density of 1 × 10^5 cells well^−1. Subsequently, the cells were treated with the conjugates or IDR1018 and incubated for 24 h at 37 °C in 5% CO2, to determine the LDH release. Triton X-100 (1% final concentration) was used as a toxic (positive) control.

S. aureus MRSA0017 [9] = experiment: Biofilm eradication assay (MBEC), preformed biofilms; assay type: cell-based; conditions: TSB + 1% glucose, viable biofilm cell count, three independent experiments
Source text: as §2

[10] = test system: MRSA SAP0017, P. aeruginosa PA14, E. coli ATTC489, A. baumannii 5015; experiment: MIC, summary over the strains tested; assay type: cell-based; conditions: range over the four strains of Table 2
Protocol: as §1

S. aureus MRSA0017 [11] = experiment: Biofilm biomass, crystal violet staining assay; assay type: cell-based; conditions: at 64 µg mL^−1, relative to untreated samples
Source text: as §2

[12] = Aggregation assay (turbidity) in sodium citrate or phosphate; assay type: physicochemical; conditions: sodium citrate and sodium phosphate, 0.1−1000 mM; OD600 relative to sterile water
Protocol: Solutions of IDR1018 peptide and the conjugates were tested for aggregation in saline (0.9% NaCl), 5% dextrose, and 10% RPMI tissue culture medium at 1 mg mL^−1. The solutions were placed in 96 well plates and sterile water was used as a negative control. The turbidity was determined for each sample as described in earlier reports. Similarly, the conjugates were screened for aggregation in the presence of sodium salts of polyatomic anions (citrate or phosphate) at various strengths (0.1−1000 mM). The % of aggregates was assessed relative to the OD600 of sterile water.

[13] = Aggregation with PBMCs in tissue culture, microscopy; assay type: physicochemical, human; conditions: 32 μg mL^−1, PBMCs in RPMI, 4 h, 37 °C, 5% CO2, microscopy; triplicate in three independent experiments
Protocol: Furthermore, isolated peripheral blood mononuclear cells (PBMCs) seeded in 96-well flat-bottom tissue culture plates (Corning Inc., Corning, NY, USA) at a concentration of 2 × 10^6 in RMPI media were treated with the two conjugates at a final concentration of 32 μg mL^−1, incubated for 4 h at 37 °C in 5% CO2, and visualized on a Nikon Eclipse TS100 microscope. Experiments were performed in triplicate in three independent experiments.

MCP-1 = experiment: Immunomodulatory assay, ELISA of PBMC supernatant; assay type: cell-based, human; conditions: PBMCs, peptide 8 μg mL^−1 co-treated with 20 ng mL^−1 P. aeruginosa LPS, 24 h
Protocol: (§3) To evaluate the capacity of the conjugates to modulate the immune system, suspended PBMCs (a final density of 1 × 10^5 cells well^−1) were treated with the conjugates at 8 μg mL^−1 in the presence or absence of 20 ng mL^−1 P. aeruginosa LPS, incubated for 24 h, centrifuged, and then the supernatants were collected to quantifying the levels of monocyte chemoattractant protein 1 (MCP-1), the tumor necrosis factor-alpha (TNFα), and interleukins (IL) IL-1β, IL-10, and the anti-inflammatory IL-1 receptor antagonist (IL-1RA) using specific ELISA assays (ELISA kits, eBioscience, Carlsbad, CA, USA). All experiments were conducted in triplicate in three independent experiments and average values were presented.

IL-1RA = experiment: Immunomodulatory assay, ELISA of PBMC supernatant; assay type: cell-based, human; conditions: PBMCs
Protocol: as §3

IL-1β = experiment: Immunomodulatory assay, ELISA of PBMC supernatant; assay type: cell-based, human; conditions: PBMCs, peptide 8 μg mL^−1 co-treated with 20 ng mL^−1 P. aeruginosa LPS, 24 h
Protocol: as §3

IL-10 = experiment: Immunomodulatory assay, ELISA of PBMC supernatant; assay type: cell-based, human; conditions: PBMCs, peptide 8 μg mL^−1 co-treated with 20 ng mL^−1 P. aeruginosa LPS, 24 h
Protocol: as §3

human PBMCs = experiment: Immunomodulatory assay, chemokine and cytokine expression overall; assay type: cell-based
Protocol: as §3

Row | Compound | MIC (A. baumannii 5015 [1]) [µg/mL] | MIC (E. coli ATTC489 [2]) [µg/mL] | MIC (P. aeruginosa PA14 [3]) [µg/mL] | MIC (S. aureus MRSA0017 [4]) [µg/mL] | MBEC (minimal biofilm eradication concentration) (P. aeruginosa PA14 [5]) [µg/mL] | MBEC (minimal biofilm eradication concentration) (E. coli ATTC489 [6]) [µg/mL] | MBEC (minimal biofilm eradication concentration) (A. baumannii 5015 [7]) [µg/mL] | cytotoxicity to PBMCs [8] | MBEC (minimal biofilm eradication concentration) (S. aureus MRSA0017 [9]) [µg/mL] | MICs, range based on the strains tested [10] [µg/mL] | biomass reduction (S. aureus MRSA0017 [11]) [%] | turbidity in sodium salts of polyatomic anions [12] | aggregation when incubated with PBMCs in tissue culture [13] | MCP1 induction level with LPS stimulation (MCP-1) | level of IL-1RA induced (IL-1RA; peptide 8 μg mL^−1, 24 h, absence of LPS, mean of three independent experiments) [ng/mL] | IL-1RA induction level with LPS stimulation (IL-1RA; peptide 8 μg mL^−1 co-treated with 20 ng mL^−1 P. aeruginosa LPS, 24 h) | expression of IL-1β with LPS stimulation (IL-1β) | IL-10 induction level with LPS stimulation (IL-10) | boost of the level of MCP1 and IL-1RA relative to unmodified IDR1018 (human PBMCs; peptide 8 μg mL^−1, absence of LPS) | ability to modulate chemokine and cytokine expression (human PBMCs; peptide 8 μg mL^−1, absence of an LPS stimulant)
1 | VRLIVAVRIWRR-NH2 [IDR1018] | 16 | 16 | 16 | 16 | 16 | 16 | 16 | up to 20% | – | – | – | – | – | – | – | – | – | – | – | –
2 | CC[C@H](C)[C@H](NC(=O)[C@H](CCCNC(=N)N)NC(=O)[C@@H](NC(=O)[C@H](C)NC(=O)[C@@H](NC(=O)[C@@H](NC(=O)[C@H](CC(C)C)NC(=O)[C@H](CCCNC(=N)N)NC(=O)[C@@H](NC(=O)[C@@H](N)[C@@H](C)OC1O[C@H](CO)[C@@H](O)[C@H](O)[C@H]1NC(C)=O)C(C)C)[C@@H](C)CC)C(C)C)C(C)C)C(=O)N[C@@H](Cc1c[nH]c2ccccc12)C(=O)N[C@@H](CCCNC(=N)N)C(=O)N[C@@H](CCCNC(=N)N)C(N)=O (stereo partly drawn) [Glc-IDR1018] (H-T(X1)VRLIVAVRIWRR-NH2) | 64 (≈ 34.8 µM) | 64 (≈ 34.8 µM) | 128 (≈ 69.6 µM) | 64 (≈ 34.8 µM) | 256 | 128 | 256 | – | 64 | 64 to 128 | ≥ 90 | no turbidity increase | neither peptide conjugate, PEG6-IDR1018, and Glc-IDR1018 showed any obvious sign of aggregation | substantially higher expression values | 0.8 | substantially higher expression values | significantly suppressed | substantially higher expression values | 2–5 fold | significant increase in the expression of the immune mediators relative to unmodified IDR1018
3 | CC[C@H](C)[C@H](NC(=O)[C@H](CCCNC(=N)N)NC(=O)[C@@H](NC(=O)[C@H](C)NC(=O)[C@@H](NC(=O)[C@@H](NC(=O)[C@H](CC(C)C)NC(=O)[C@H](CCCNC(=N)N)NC(=O)[C@@H](NC(=O)CCOCCOCCOCCOCCOCCOCCO)C(C)C)[C@@H](C)CC)C(C)C)C(C)C)C(=O)N[C@@H](Cc1c[nH]c2ccccc12)C(=O)N[C@@H](CCCNC(=N)N)C(=O)N[C@@H](CCCNC(=N)N)C(N)=O [PEG6-IDR1018] (X2-VRLIVAVRIWRR-NH2) | 64 (≈ 34.2 µM) | 64 (≈ 34.2 µM) | 64 (≈ 34.2 µM) | 32 (≈ 17.1 µM) | 256 | 128 | 128 | – | 64 | 32 to 64 | – | – | – | – | – | – | – | – | – | –
